# Laboratory results reported in PubChem BioAssay (NCI).
#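 Five compound concentrations were applied to cells in 96-well plates for 48 hours; endpoints were derived by simple linear interpolation of the resulting dose-response curve. Abbreviation: GI50, concentration required for 50% inhibition of growth. TGI: concentration producing complete growth inhibition.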
# Experiments:
# Assay in all cases: DTP human tumour cell line panel, 48 h
# EKVX NSCLC = tested on: EKVX NSCLC
# HCT-15 colon = tested on: HCT-15 colon
# MOLT-4 leukemia = tested on: MOLT-4 leukemia
# SK-MEL-28 melanoma = tested on: SK-MEL-28 melanoma
# M14 melanoma = tested on: M14 melanoma
# KM12 colon = tested on: KM12 colon
# OVCAR-5 ovarian = tested on: OVCAR-5 ovarian
# A549 NSCLC = tested on: A549 NSCLC
# MDA-MB-435 = tested on: MDA-MB-435
# IGROV1 ovarian = tested on: IGROV1 ovarian
# NCI-H226 lung = tested on: NCI-H226 lung
# SR leukemia = tested on: SR leukemia
# COLO 205 colon = tested on: COLO 205 colon
# OVCAR-8 ovarian = tested on: OVCAR-8 ovarian
# NCI-H460 lung = tested on: NCI-H460 lung
# SK-OV-3 ovarian = tested on: SK-OV-3 ovarian
# HCC-2998 colon = tested on: HCC-2998 colon
# NCI/ADR-RES ovarian = tested on: NCI/ADR-RES ovarian
# UO-31 renal = tested on: UO-31 renal
# DU-145 prostate = tested on: DU-145 prostate
# PC-3 prostate = tested on: PC-3 prostate
# SNB-75 CNS = tested on: SNB-75 CNS
# MCF7 breast = tested on: MCF7 breast
# SW-620 colon = tested on: SW-620 colon
# OVCAR-4 ovarian = tested on: OVCAR-4 ovarian
# SF-539 CNS = tested on: SF-539 CNS
# 786-0 renal = tested on: 786-0 renal
# MDA-MB-231 breast = tested on: MDA-MB-231 breast
# NCI-H522 lung = tested on: NCI-H522 lung
# RXF 393 renal = tested on: RXF 393 renal
# NCI-H23 lung = tested on: NCI-H23 lung
# K-562 leukemia = tested on: K-562 leukemia
# SF-268 CNS = tested on: SF-268 CNS
# UACC-257 melanoma = tested on: UACC-257 melanoma
# CCRF-CEM leukemia = tested on: CCRF-CEM leukemia
# HOP-92 NSCLC = tested on: HOP-92 NSCLC
# SF-295 CNS = tested on: SF-295 CNS
# CAKI-1 renal = tested on: CAKI-1 renal
# SK-MEL-2 melanoma = tested on: SK-MEL-2 melanoma
# A498 renal = tested on: A498 renal
# MALME-3M melanoma = tested on: MALME-3M melanoma
# ACHN renal = tested on: ACHN renal
# UACC-62 melanoma = tested on: UACC-62 melanoma
# T-47D breast = tested on: T-47D breast
# RPMI-8226 leukemia = tested on: RPMI-8226 leukemia
# OVCAR-3 ovarian = tested on: OVCAR-3 ovarian
# MDA-N = tested on: MDA-N
# U251 CNS = tested on: U251 CNS
# HOP-62 NSCLC = tested on: HOP-62 NSCLC
# SNB-19 CNS = tested on: SNB-19 CNS
# HCT-116 colon = tested on: HCT-116 colon
# HS 578T breast = tested on: HS 578T breast
# HT29 colon = tested on: HT29 colon
# LOX IMVI melanoma = tested on: LOX IMVI melanoma
# SN12C renal = tested on: SN12C renal
# SK-MEL-5 melanoma = tested on: SK-MEL-5 melanoma
# TK-10 renal = tested on: TK-10 renal
# HL-60(TB) leukemia = tested on: HL-60(TB) leukemia
# BT-549 breast = tested on: BT-549 breast
smiles,measurement,setting,value
S=C(Nc1ccc(Br)cn1)NC12CC3CC(CC(C3)C1)C2,TGI,EKVX NSCLC,65 µM
same,TGI,HCT-15 colon,> 100 µM
same,TGI,MOLT-4 leukemia,67.6 µM
same,TGI,SK-MEL-28 melanoma,> 100 µM
same,TGI,M14 melanoma,> 100 µM
same,TGI,KM12 colon,> 100 µM
same,TGI,OVCAR-5 ovarian,90.7 µM
same,TGI,A549 NSCLC,53.5 µM
same,TGI,MDA-MB-435,> 100 µM
same,TGI,IGROV1 ovarian,30.2 µM
same,TGI,NCI-H226 lung,64.8 µM
same,TGI,SR leukemia,> 100 µM
same,TGI,COLO 205 colon,> 100 µM
same,TGI,OVCAR-8 ovarian,25.9 µM
same,TGI,NCI-H460 lung,> 100 µM
same,TGI,SK-OV-3 ovarian,67.6 µM
same,TGI,HCC-2998 colon,83.3 µM
same,TGI,NCI/ADR-RES ovarian,55.7 µM
same,TGI,UO-31 renal,> 100 µM
same,TGI,DU-145 prostate,> 100 µM
same,TGI,PC-3 prostate,43.2 µM
same,TGI,SNB-75 CNS,40.8 µM
same,TGI,MCF7 breast,> 100 µM
same,TGI,SW-620 colon,> 100 µM
same,TGI,OVCAR-4 ovarian,> 100 µM
same,TGI,SF-539 CNS,33.7 µM
same,TGI,786-0 renal,21.3 µM
same,TGI,MDA-MB-231 breast,58 µM
same,TGI,NCI-H522 lung,37.5 µM
same,TGI,RXF 393 renal,37 µM
same,TGI,NCI-H23 lung,38.9 µM
same,TGI,K-562 leukemia,> 100 µM
same,TGI,SF-268 CNS,34.5 µM
same,TGI,UACC-257 melanoma,> 100 µM
same,TGI,CCRF-CEM leukemia,70.3 µM
same,TGI,HOP-92 NSCLC,26.4 µM
same,TGI,SF-295 CNS,49.5 µM
same,TGI,CAKI-1 renal,> 100 µM
same,TGI,SK-MEL-2 melanoma,51.7 µM
same,TGI,A498 renal,> 100 µM
same,TGI,MALME-3M melanoma,58.9 µM
same,TGI,ACHN renal,56.1 µM
same,TGI,UACC-62 melanoma,43.4 µM
same,TGI,T-47D breast,> 100 µM
same,TGI,RPMI-8226 leukemia,> 100 µM
same,TGI,OVCAR-3 ovarian,> 100 µM
same,TGI,MDA-N,47.7 µM
same,TGI,U251 CNS,30 µM
same,TGI,HOP-62 NSCLC,> 100 µM
same,TGI,SNB-19 CNS,25.9 µM
same,TGI,HCT-116 colon,35.3 µM
NC(CSC(c1ccccc1)(c1ccccc1)c1ccc2ccccc2c1)C(=O)O (stereo not given),GI50,HS 578T breast,0.0267 µM
same,TGI,HS 578T breast,0.0832 µM
same,GI50,EKVX NSCLC,0.136 µM
same,TGI,EKVX NSCLC,26.3 µM
same,GI50,HCT-15 colon,0.175 µM
same,TGI,HCT-15 colon,23.7 µM
same,GI50,MOLT-4 leukemia,0.29 µM
same,TGI,MOLT-4 leukemia,> 33.8 µM
same,GI50,SK-MEL-28 melanoma,0.38 µM
same,TGI,SK-MEL-28 melanoma,16 µM
same,GI50,M14 melanoma,0.0211 µM
same,TGI,M14 melanoma,0.0512 µM
same,GI50,KM12 colon,0.0804 µM
same,TGI,KM12 colon,3.21 µM
same,GI50,OVCAR-5 ovarian,0.323 µM
same,TGI,OVCAR-5 ovarian,16.9 µM
same,GI50,A549 NSCLC,0.095 µM
same,TGI,A549 NSCLC,26.4 µM
same,GI50,MDA-MB-435,0.018 µM
same,TGI,MDA-MB-435,0.0363 µM
same,GI50,IGROV1 ovarian,0.124 µM
same,TGI,IGROV1 ovarian,21.6 µM
same,GI50,NCI-H226 lung,9.27 µM
same,TGI,NCI-H226 lung,24.5 µM
same,GI50,SR leukemia,0.0869 µM
same,TGI,SR leukemia,> 40.5 µM
same,GI50,COLO 205 colon,0.0816 µM
same,TGI,COLO 205 colon,0.875 µM
same,GI50,OVCAR-8 ovarian,0.0804 µM
same,TGI,OVCAR-8 ovarian,21.3 µM
same,GI50,NCI-H460 lung,0.0485 µM
same,TGI,NCI-H460 lung,12.1 µM
same,GI50,SK-OV-3 ovarian,0.0806 µM
same,TGI,SK-OV-3 ovarian,29.6 µM
same,GI50,HCC-2998 colon,0.0374 µM
same,TGI,HCC-2998 colon,0.496 µM
same,GI50,NCI/ADR-RES ovarian,0.989 µM
same,TGI,NCI/ADR-RES ovarian,3.64 µM
same,GI50,UO-31 renal,3.1 µM
same,TGI,UO-31 renal,24.3 µM
same,GI50,DU-145 prostate,0.0986 µM
same,TGI,DU-145 prostate,0.333 µM
same,GI50,PC-3 prostate,0.0628 µM
same,TGI,PC-3 prostate,> 82.7 µM
same,GI50,SNB-75 CNS,0.121 µM
same,TGI,SNB-75 CNS,30.6 µM
same,GI50,MCF7 breast,0.0321 µM
same,TGI,MCF7 breast,21.9 µM
same,GI50,HT29 colon,0.2 µM
same,TGI,HT29 colon,> 100 µM
same,GI50,SW-620 colon,0.0381 µM
same,TGI,SW-620 colon,11.6 µM
same,GI50,OVCAR-4 ovarian,13.1 µM
same,TGI,OVCAR-4 ovarian,33.2 µM
same,GI50,SF-539 CNS,0.0384 µM
same,TGI,SF-539 CNS,3.07 µM
same,GI50,786-0 renal,0.0763 µM
same,TGI,786-0 renal,1.19 µM
same,GI50,MDA-MB-231 breast,0.0695 µM
same,TGI,MDA-MB-231 breast,5 µM
same,GI50,NCI-H522 lung,0.0392 µM
same,TGI,NCI-H522 lung,1.49 µM
same,GI50,RXF 393 renal,0.0572 µM
same,TGI,RXF 393 renal,21.5 µM
same,GI50,NCI-H23 lung,0.131 µM
same,TGI,NCI-H23 lung,16.4 µM
same,GI50,LOX IMVI melanoma,0.172 µM
same,TGI,LOX IMVI melanoma,18.1 µM
same,GI50,K-562 leukemia,0.0461 µM
same,TGI,K-562 leukemia,> 100 µM
same,GI50,SF-268 CNS,0.0517 µM
same,TGI,SF-268 CNS,13.7 µM
same,GI50,UACC-257 melanoma,9.67 µM
same,TGI,UACC-257 melanoma,34.3 µM
same,GI50,CCRF-CEM leukemia,0.0372 µM
same,TGI,CCRF-CEM leukemia,> 39.4 µM
same,GI50,HOP-92 NSCLC,0.215 µM
same,TGI,HOP-92 NSCLC,23.2 µM
same,GI50,SF-295 CNS,0.0246 µM
same,TGI,SF-295 CNS,2.64 µM
same,GI50,CAKI-1 renal,0.0998 µM
same,TGI,CAKI-1 renal,34.6 µM
same,GI50,SN12C renal,0.0874 µM
same,TGI,SN12C renal,18.2 µM
same,GI50,SK-MEL-2 melanoma,1.29 µM
same,TGI,SK-MEL-2 melanoma,30 µM
same,GI50,A498 renal,0.0529 µM
same,TGI,A498 renal,3.79 µM
same,GI50,SK-MEL-5 melanoma,0.0438 µM
same,TGI,SK-MEL-5 melanoma,11.5 µM
same,GI50,MALME-3M melanoma,1.33 µM
same,TGI,MALME-3M melanoma,25.4 µM
same,GI50,TK-10 renal,0.524 µM
same,TGI,TK-10 renal,23.6 µM
same,GI50,ACHN renal,0.911 µM
same,TGI,ACHN renal,30.8 µM
same,GI50,HL-60(TB) leukemia,0.0493 µM
same,GI50,UACC-62 melanoma,0.0628 µM
same,TGI,UACC-62 melanoma,13.6 µM
same,GI50,BT-549 breast,0.144 µM
same,TGI,BT-549 breast,22.8 µM
same,GI50,T-47D breast,0.132 µM
same,TGI,T-47D breast,18 µM
same,GI50,RPMI-8226 leukemia,0.0327 µM
same,GI50,OVCAR-3 ovarian,0.0287 µM
same,TGI,OVCAR-3 ovarian,0.0992 µM
same,GI50,U251 CNS,0.0408 µM
same,TGI,U251 CNS,12.1 µM
same,GI50,HOP-62 NSCLC,0.114 µM
same,TGI,HOP-62 NSCLC,14.4 µM
same,GI50,SNB-19 CNS,0.066 µM
same,TGI,SNB-19 CNS,17.3 µM
same,GI50,HCT-116 colon,0.0312 µM
same,TGI,HCT-116 colon,0.958 µM
